Values quoted from earlier work in patent US8524697B2, “C20-C21 substituted glucocorticoid receptor agonists” (Merck Sharp & Dohme Corp., priority 2007, dated 2013).

Molecular target: SYK kinase (Homo sapiens, UniProt P43405)
Settings: symptoms associated with chronic nasal congestion

absolute difference over placebo: 9%
improvement from baseline measurements (prior to drug initiation): up to 38%
relative improvement over placebo: greater than 20%
SMILES: Oc1cccc(Nc2ncc(F)c(Nc3cccc(O)c3)n2)c1 [Example R112]
